Test system: Vγ9Vδ2 T cells
Test: Production of IFN-γ, TNF and GM-CSF, ELISA of culture supernatants
Format: cell-based, human
Method: Supernatants of the culture solutions having various conditions under which Vγ9Vδ2 T cells were cultured were assayed by ELISA so that the production of cytokines (e.g., IFN-γ, TNF, GM-CSF) was measured.
The Vγ9Vδ2 T cells were restimulated both in the presence of IL-18 and in the absence of IL-18. After 24 hours, a supernatant of the culture solution containing IL-18 and a supernatant of the culture solution devoid of IL-18 were compared. In this case also, the result obtained was similar to the above.

[1] = purified activated Vγ9Vδ2 T cells restimulated, 24 hours

## IL-18: interleukin 18, cytokine, IFN-γ inducing factor, obtained from GlaxoSmithKline K.K.
Data not shown
  production of GM-CSF, supernatant supplemented with IL-18 versus without: about 10 times
[1]
  production of IFN-γ, presence versus absence of IL-18: far larger production
  production of TNFα, presence versus absence of IL-18: far larger production

From US7749760B2, “Vγ9Vδ2 T cell proliferation agent, method for producing activated Vγ9Vδ2 T cells, and uses thereof” (Hyogo College of Medicine, priority 2008, dated 2010)
